From PubChem BioAssay AID1985 (Southern Research Specialized Biocontainment Screening …, 2009)

System: S. Typhi PhoP-promoter GFP reporter, fluorescence, 4 h
Assay: PhoP regulon inhibitor project modified counter assay, GFP fluorescence readout, dose response (AID 1985)

| SMILES | IC50 [µM] |
| --- | --- |
| OC(CNCCc1ccc(Cl)cc1Cl)COc1ccccc1 (centres undefined) | 71.7 |
| OC(CNCCc1ccc(C(F)(F)F)cc1)COC(c1ccccc1)c1ccccc1 (centres undefined) | 82.9 |
| Cc1cc(=O)[nH]c(-n2nc(C)cc2C)n1 | 67.5 |
| CC[C@@H](C)[C@H](CN[C@H](CNC)C(C)C)NC[C@@H](C)c1ccc(CC(C)C)cc1 | 61 |
| O=c1ccc2cc3c([nH]c4ccc(Br)cc43)oc-2c1O | 22.5 |
| O=C1CC(NC(=O)C(F)(F)F)=NN1c1ccccc1 | 143 |
| Cc1ccc(NC(=O)c2ccccc2)s1 | 91.9 |
| Nc1ncn(C2O[C@H](CO)[C@@H](O)[C@H]2O)c(=O)n1 (some centres undefined) | 10.1 |
| Cc1cccc(OCC(O)Cn2c(=N)n(CCN3CCCCC3)c3ccccc32)c1 (centres undefined) | 50.2 |
| C#CCOCCOCCOCCNc1nc(N2CCN(C(=O)CCCCCCCCCCNC(=O)Cn3cc(CCCCCN)nn3)CC2)nc(N2CCN(C(=O)CCCCCCCCCCNC(=O)[C@H]([C@@H](C)CC)n3cc(CCCCN=C(N)N)nn3)CC2)n1 | 36.8 |
| CCn1cc(C(=O)O)c(=O)c2cc(F)c(N3CCN(C(=S)NC(=O)c4ccccc4C)CC3)cc21 | 28.2 |
| O=C(CCN1CCN(c2ccccc2)CC1)N/N=C/c1ccc([N+](=O)[O-])o1 | 70.2 |
| OCCNCc1cc(Br)ccc1OCc1ccc(Cl)cc1 | 121 |
| CN(C)CCNc1oc(COc2ccc(-c3ccccc3)cc2)nc1C#N | 78.8 |
| C#CCOCCOCCOCCNc1nc(N2CCN(C(=O)CCCCCCCCCCNC(=O)[C@H](CCCCN)n3cc(C[C@@H](C)CC)nn3)CC2)nc(N2CCN(C(=O)CCCCCCCCCCNC(=O)[C@H](CCCN=C(N)N)n3cc(C[C@@H](C)CC)nn3)CC2)n1 | 68.2 |
| O=C(CCN1CCN(C(=O)c2ccccc2)CC1)c1ccc(Br)cc1 | 144 |
| O=C(N/N=C/c1cc(Br)ccc1O)c1ccccc1Cl | 82.8 |
| Clc1ccc(CN2CCc3c([nH]c4ccccc34)C2)cc1Cl | 48.5 |
| O=C(N/N=C/c1c[nH]c2ccccc12)c1ccc(Cl)cc1 | 123 |
| Cc1ccc2c(c1)c1c(n2CC(O)CNC2CCCCC2)CCCC1 (centres undefined) | 136 |
| C/C(Cn1nnc([N+](=O)[O-])n1)=N\NC(=O)c1ccccc1 | 149 |
| CCn1cc(C(=O)O)c(=O)c2cc3c(cc21)OCO3 | 52.1 |

| SMILES | IC50 [µM] |
| --- | --- |
| Cc1cc(NS(=O)(=O)c2ccc(NC(=S)NC(=O)c3cccnc3)cc2)no1 | 126 |
| CC(=O)NC(c1cccc([N+](=O)[O-])c1)c1ccc2cccnc2c1O (centres undefined) | 98.9 |
| CCc1cccc2c(C(=O)COC(=O)c3ccc([N+](=O)[O-])s3)c[nH]c12 | 10.4 |
| O=C(N/N=C/c1ccc([N+](=O)[O-])o1)c1ccc(O)cc1 | 18.3 |
| CN1CCc2nc(SCC(=O)Nc3ccc(Cl)cc3)c(C#N)cc2C1 | 67.2 |
| CN(C)CCCn1c(SCC(=O)N2c3ccccc3Sc3ccccc32)nc2ccccc2c1=O | 145 |
| O=C(/C=C/c1ccco1)NC(=S)NNC(=O)c1ccco1 | 111 |
| O[C@@H](c1cc(C(F)(F)F)nc2c(C(F)(F)F)cccc12)[C@H]1CCCCN1 | 90.6 |
| Nc1nc(N)c(Cc2ccc(Cl)cc2Cl)c(N)n1 | 103 |
| COc1ccc2c(C(=O)CCl)c[nH]c2c1 | 36.3 |
| NC1=NC[C@H](Cc2ccc(O)cc2)N1CCCCC1CCCCC1 | 25.5 |
| CCn1cc(C(=O)O)c(=O)c2cc(F)c(N3CCNCC3)cc21 | < 0.23 |
| O=C1CN(/N=C/c2ccc([N+](=O)[O-])o2)C(=O)N1 | 32.2 |
| CN1CCN(CCCN2c3ccccc3Sc3ccc(C(F)(F)F)cc32)CC1 | 124 |
| O=C(N/N=C/c1cc([N+](=O)[O-])ccc1O)C(O)(c1ccccc1)c1ccccc1 | 60.4 |
| CCCCn1c(NS(=O)(=O)c2ccccc2)c(S(=O)(=O)c2ccc(C)cc2)c2nc3ccccc3nc21 | 114 |
| CC(=O)NC(=S)NNC(=O)c1ccc(Br)cc1 | 33.8 |
| Nc1nc(F)nc2c1ncn2[C@@H]1O[C@H](CO)[C@@H](O)[C@H]1O | 3.76 |
| Cc1nnc(N/N=C/c2ccccn2)[nH]c1=O | 31.1 |
| CCS(=O)(=O)c1ccc2oc(=O)c(/C=C(\O)c3ccc(Cl)cc3)nc2c1 | 65.1 |
| CC(=O)NC(c1ccc2ccccc2c1)c1ccc2cccnc2c1O (centres undefined) | 68.4 |
| CN1CCN(c2nc3cc(C(F)(F)F)ccc3n3cccc23)CC1 | 101 |

| SMILES | IC50 [µM] |
| --- | --- |
| O=C(Nc1cccc(Cl)c1)Nc1nccs1 | 55.3 |
| CN1CCN(c2c(F)cc3c(=O)c(C(=O)O)cn4c3c2OCN4C)CC1 | < 0.23 |
| CNCCCN1c2ccccc2CCc2ccccc21 | 143 |
| C#CCOCCOCCOCCNc1nc(N2CCN(C(=O)CCCCCCCCCCNC(=O)[C@H](CCCCN)n3cc(CCO)nn3)CC2)nc(N2CCN(C(=O)CCCCCCCCCCNC(=O)[C@H](CCCCN)n3cc(C[C@@H](C)CC)nn3)CC2)n1 | 38 |
| O=[N+]([O-])c1cc(O)c2ncccc2c1 | 12.1 |
| CN(C)c1ccc2nc3ccc(=[N+](C)C)cc-3sc2c1 | 22.7 |
| CS(=O)(=O)c1ccc([C@@H](O)[C@@H](CO)NC(=O)C(Cl)Cl)cc1 | 19.7 |
| Cc1cc(C)nc(SCC(=O)Nc2sc3c(c2C#N)CCC(C)C3)n1 (centres undefined) | 41.8 |
| O=C(/C=C/c1ccccc1)NC(=S)NNC(=O)c1cnccn1 | 146 |
| CCOc1cccc(CNCCc2c(C)[nH]c3ccc(OC(F)(F)F)cc23)c1O | 76.2 |
| Oc1ccc(CN2CCCc3ccccc32)c2cccnc12 | 36.1 |
| CCCc1nnc(NC(=O)c2cn(CC)c3cc(N4CCN(C)CC4)c(F)cc3c2=O)s1 | 41.2 |
| O=C(CSc1ccccn1)N/N=C/c1cc([N+](=O)[O-])ccc1O | 35.6 |
| O=C1C(O)=C(O)C(=O)c2ccccc21 | 88.8 |
| CCOc1ccc(/C=N/NC(=O)c2[nH]ncc2Br)c(O)c1 | 65.4 |
| CN1CCC(OC(=O)c2ccc(Br)cc2)CC1 | 58.3 |
| Oc1ccc(C[C@@H]2CNCCN2CCC23CC4CC(CC(C4)C2)C3)cc1 | 78.9 |
| CN(C)CCCNc1cc(C(C)(C)C)nc2c(-c3ccccc3)cnn12 | 75.7 |
| CN1CCN(C2=Cc3ccccc3Sc3cc(F)c(F)cc32)CC1 | 74.6 |
| COc1ccc(/C=C/c2cc[n+](C(=O)Cc3ccccc3)cc2)cc1 | 107 |
| COc1cc2c(cc1O)[C@H](Cc1ccc(Oc3cc(C[C@@H]4NCCc5cc(OC)c(O)cc54)ccc3O)cc1)NCC2 | 56.9 |
| Nc1nc2ccccc2n1CCOc1ccccc1Cl | 63.1 |

| SMILES | IC50 [µM] |
| --- | --- |
| O=C(N/N=C/c1ccc(O)c(O)c1)C1c2ccccc2Oc2ccccc21 | 106 |
| O=C(O)c1sccc1Oc1ccc(F)cc1[N+](=O)[O-] | 12.6 |
| CCn1cc(C(=O)O)c(=O)c2cc(F)c(N3CCN(C(=S)NC(=O)c4ccccc4)CC3)cc21 | 24 |
| Cc1nc2ccccn2c1C(=O)N/N=C/c1ccc([N+](=O)[O-])o1 | 33.5 |
| Clc1ccc(OCCCNCc2ccccc2)c(Br)c1 | 43.8 |
| CO/N=C(/C(=O)N[C@@H]1C(=O)N2C(C(=O)O)=CCS[C@H]12)c1cnc(N)s1 | 59.8 |
| CC(=O)Nc1cccc(NC(=O)Nc2ccc(F)cc2F)c1 | 114 |
| Cc1ccc(C(=O)N/C(=C\c2ccc(-c3ccc(Br)cc3)o2)C(=O)NCCCN(C)C)cc1 | 66.3 |
| CCCCNC1=CC(=O)C(=O)c2ccccc21 | 104 |
| Oc1ccccc1C(Nc1nccs1)c1ccc2cccnc2c1O (centres undefined) | 34.8 |
| O=C(Nc1csc(Cl)c1)c1ccccc1 | 43.6 |
| Cc1cccc(Nc2cc(C)c3c(O)cccc3n2)c1C | 49.6 |
| O=C(Oc1c(Br)cc([N+](=O)[O-])cc1Br)c1cccnc1 | 46.5 |
| Nc1c(Cl)ncnc1N/N=C/c1ccccn1 | 33.4 |
| O=C1NCCN1c1ncc([N+](=O)[O-])s1 | 15.9 |
| NC[C@@H]1O[C@H](C23CC4CC(CC(C4)C2)C3)Cc2c1ccc(O)c2O | 39.8 |
| CC1CCC(C(C)C)C(OC(=O)Cn2c(COc3ccccc3)[n+](C)c3ccccc32)C1 (centres undefined) | 51.5 |
| O=C(CCN1CCN(c2ccccc2F)CC1)c1ccc(Br)cc1 | 43.4 |
| CC[C@H]1OC(=O)[C@H](C)[C@@H](O[C@H]2C[C@@](C)(OC)[C@@H](O)[C@H](C)O2)[C@H](C)[C@@H](O[C@@H]2O[C@H](C)C[C@H](N(C)C)[C@H]2O)[C@](C)(O)C[C@@H](C)[C@@H]2N[C@@H](COCCOC)O[C@H]([C@H]2C)[C@]1(C)O | 45.4 |
| O=C(CSc1ccccn1)N/N=C/c1c[nH]c2ccccc12 | 133 |
| CN1CCN(C(c2ccc(Cl)cc2)c2cc(Cl)c3cccnc3c2O)CC1 (centres undefined) | 31.8 |
| CCn1nc(C(=O)O)c(=O)c2cc3c(cc21)OCO3 | 103 |

| SMILES | IC50 [µM] |
| --- | --- |
| OC(CNCCc1ccc(Cl)cc1)COc1cc(Cl)ccc1Cl (centres undefined) | 36.6 |
| Cc1ccc(C(=O)N/C(=C\c2ccc(-c3ccc(Cl)cc3)o2)C(=O)NCCCN(C)C)cc1 | 85.8 |
| N#C/C(N=Nc1ccccc1O)=N\Nc1ccccc1O | 9.47 |
| CCCCCCCCCCOC(=O)C[N+](C)(C)CC1CCCCC1O (centres undefined) | 65 |
| CCN(CC)c1ccc(/C=N/NC(=O)c2ccc3nc[nH]c3c2)c(O)c1 | 46.6 |
| Cc1ccc(-c2c[n+](Cc3ccc(Cl)cc3)c3n2CCC3)cc1 | 90.3 |
| O=c1c2ccccc2nc(N/N=C/c2c(O)ccc3ccccc23)n1O | 23 |
| O=C(CNC(=O)c1ccccc1)N/N=C/c1ccc([N+](=O)[O-])s1 | 19.5 |
| O=C(O)c1cn(C2CC2)c2cc(N3CCN(S(=O)(=O)c4ccc5c(c4)OCCO5)CC3)c(F)cc2c1=O | 28.2 |
| CCOc1ccc(-c2cc(C)[n+](CCN(CC)CC)c(-c3ccc(OCC)cc3)c2)cc1 | 105 |
| O=C(C[n+]1ccc(-c2ccccc2)cc1)Nc1ccc([N+](=O)[O-])cc1 | 27.3 |
| CCCCCC[N+](C)(C)CC/C=C1/c2ccccc2Sc2ccc(Cl)cc21 | 36.3 |
| Cc1[nH]c2ccc(OC(F)(F)F)cc2c1CCNCc1ccc(Cl)cc1 | 36.3 |
| O=c1cc(-c2ccccc2)nc2nc(-c3ccco3)[nH]n12 | 139 |
| Fc1ccc([C@@H]2CCNC[C@H]2COc2ccc3c(c2)OCO3)cc1 | 77.5 |
| Cc1[nH]cnc1C(=O)N/N=C/c1ccc([N+](=O)[O-])s1 | 20.6 |
| O=C(Nc1ccncc1)Nc1ccc(Cl)cc1 | 40.5 |
| NC1=NC[C@H](CC2CCCCC2)N1CCc1cc(C(F)(F)F)cc(C(F)(F)F)c1 | 37.6 |
| O=C(C[n+]1cnn(CC(=O)c2ccc(Cl)cc2Cl)c1)c1ccc([N+](=O)[O-])cc1 | 42.8 |
| CN(C)CCCN1c2ccccc2Sc2ccccc21 | 103 |
| O=c1[nH]c(=S)ccn1C1OC(CO)C(O)C1O (centres undefined) | 1.74 |
